Laboratory results taken from patent US11931424B2, “Combination MCL-1 inhibitors with anti-body drug conjugates” (Gilead Sciences, Inc., priority 2021, dated 2024).

Test system: panel of breast cancer cell lines
Test: Compound A with targeted agents and chemotherapies, 72-hour in vitro proliferation assays
Assay type: cell-based
Settings: 72-hour proliferation
[1] = MCF7 cells, Compound A × partner agent
[2] = MDA-MB-175-VII cells, Compound A × partner agent
[3] = MDA-MB-231 cells, Compound A × partner agent
[4] = MDA-MB-361 cells, Compound A × partner agent
[5] = MDA-MB-436 cells, Compound A × partner agent
[6] = MDA-MB-453 cells, Compound A × partner agent
[7] = MDA-MB-468 cells, Compound A × partner agent
[8] = SK-BR-3 cells, Compound A × partner agent
[9] = SUM159PT cells, combination of compound A with the named agent
[10] = T47D cells, combination of compound A with the named agent
[11] = ZR-75-1 cells, combination of compound A with the named agent
[12] = ZR-75-30 cells, combination of compound A with the named agent

N.N.[Cl][Pt][Cl] [Cisplatin]
HSA volume (HCC2218, compound A × partner): 2.71
Loewe Volume (HCC2218, compound A × partner): −0.66
Synergy Score (HCC2218, compound A × partner): 7.99
Best CI (HDQ-P1, compound A × partner): 0.60
Best CI Level (HDQ-P1, compound A × partner): 30
Bliss Volume (HDQ-P1, compound A × partner): 0.53
HSA volume (HDQ-P1, compound A × partner): −0.23
Loewe Volume (HDQ-P1, compound A × partner): 0.64
Synergy Score (HDQ-P1, compound A × partner): 1.46
Best CI (HMC-1-8, compound A × partner): 0.35
Best CI Level (HMC-1-8, compound A × partner): 180
Bliss Volume (HMC-1-8, compound A × partner): 20.03
HSA volume (HMC-1-8, compound A × partner): 7.01
Loewe Volume (HMC-1-8, compound A × partner): 6.38
Synergy Score (HMC-1-8, compound A × partner): 14.62
Best CI (JIMT-1, compound A × partner): 0.61
Best CI Level (JIMT-1, compound A × partner): 20
Bliss Volume (JIMT-1, compound A × partner): 0.69
HSA volume (JIMT-1, compound A × partner): −1.64
Loewe Volume (JIMT-1, compound A × partner): −0.53
Synergy Score (JIMT-1, compound A × partner): 1.21
Best CI (KPL-1, compound A × partner): 0.76
Best CI Level (KPL-1, compound A × partner): 110
Bliss Volume (KPL-1, compound A × partner): −0.41
HSA volume (KPL-1, compound A × partner): 0.95
Loewe Volume (KPL-1, compound A × partner): 0.45
Synergy Score (KPL-1, compound A × partner): 4.51
Best CI [1]: 0.45
Best CI Level [1]: 150
Bliss Volume [1]: 11.15
HSA volume [1]: 4.64
Loewe Volume [1]: 3.51
Synergy Score [1]: 6.98
Best CI [2]: 0.49
Best CI Level [2]: 60
Bliss Volume [2]: 9.70
HSA volume [2]: −1.47
Loewe Volume [2]: 2.49
Synergy Score [2]: 4.03
Best CI [3]: 0.34
Best CI Level [3]: 70
Bliss Volume [3]: 5.98
HSA volume [3]: 4.74
Loewe Volume [3]: 6.47
Synergy Score [3]: 4.48
Best CI [4]: 0.81
Best CI Level [4]: 165
Bliss Volume [4]: 3.24
HSA volume [4]: −1.91
Loewe Volume [4]: −2.31
Synergy Score [4]: 3.36
Best CI [5]: 1.18
Best CI Level [5]: 120
Bliss Volume [5]: 2.08
HSA volume [5]: 1.62
Loewe Volume [5]: 1.58
Synergy Score [5]: 2.45
Best CI [6]: 0.34
Best CI Level [6]: 70
Bliss Volume [6]: 13.82
HSA volume [6]: 4.06
Loewe Volume [6]: 4.70
Synergy Score [6]: 9.66
Best CI [7]: 0.53
Best CI Level [7]: 105
Bliss Volume [7]: 27.91
HSA volume [7]: 5.89
Loewe Volume [7]: 4.42
Synergy Score [7]: 8.65
Best CI [8]: 0.14
Best CI Level [8]: 150
Bliss Volume [8]: 19.53
HSA volume [8]: 6.00
Loewe Volume [8]: 5.11
Synergy Score [8]: 10.90
Best CI [9]: 0.79
Best CI Level [9]: 20
Bliss Volume [9]: −1.91
HSA volume [9]: −4.36
Loewe Volume [9]: −4.20
Synergy Score [9]: 0.41
Best CI [10]: 0.79
Best CI Level [10]: 80
Bliss Volume [10]: −0.02
HSA volume [10]: 0.03
Loewe Volume [10]: 0.73
Synergy Score [10]: 3.05
Best CI [11]: 0.88
Best CI Level [11]: 155
Bliss Volume [11]: 9.45
HSA volume [11]: 7.38
Loewe Volume [11]: 8.42
Synergy Score [11]: 12.40
Best CI [12]: 0.24
Best CI Level [12]: 95
Bliss Volume [12]: 14.77
HSA volume [12]: 8.48
Loewe Volume [12]: 9.66
Synergy Score [12]: 16.44
